Each block holds one compound with its values, some of them ahead of it.
Tests used:
Aβ^1-42 aggregates = target: T1, Aβ^1-42 aggregates (Homo sapiens, UniProt P05067); assay: HSI with Spectral Angle Mapper (SAM) mapping and counting of intracellular amyloid aggregates; format: cell-based; settings: HSI imaging coupled with SAM
T1 construct: Aβ1-42, FITC-Aβ1-42 and FITC-scrambled-Aβ1-42 were purchased from American Peptide Company; purchased American Peptide Company (Sunnyvale, CA, USA); host or cells: synthetic peptide added to SH-SY5Y cell cultures
Protocol: Cell Culture and Cellular Uptake. The human neuroblastoma cell line, SH-SY-5Y, used in the present study was obtained from American Type Culture Collection (Manassas, VA). The cells were maintained in MEM:F12 (1:1) medium supplemented with 10% FBS, 100 units/mL penicillin and 100 units/mL streptomycin and 1% NEAA (non-essential amino acid). Cells were grown at 37° C. in a humidified atmosphere with 5% CO2/95% air. FITC-Aβ1-42, and FITC-scrambled-Aβ1-42, were added to SHSY5Y cultures for 24 h. […]
(§1) The images were captured at 40× magnification using ENVI software, which is followed by extraction of spectral curves as described in the next section. The camera captured spectral responses from 400-1000 nm with a maximum readout time of 12 frames per second. […]
Spectral Angle Mapping Classification Algorithm Among supervised classification methods, a SAM classification algorithm was selected due to its better performance than other classification algorithms for detection of β-amyloid aggregates in unknown samples. […] The spectral angle parameter value as α=0·1 or 0·2 was used for a SAM classifier where α is defined as the angle between testing spectrum vector a, and reference spectrum vector b and is calculated using the following equation: (Also, see FIG. 14, and Siddiqi et al., Cancer, 114(1), 13-21 (2008).

Aβ^1-42 aggregation = target: T2, Aβ^1-42 aggregation (Homo sapiens, UniProt P05067); assay: HSI spectral signature inhibitor screening in Aβ1-42-treated SH-SY5Y cells; format: cell-based; settings: cells co-incubated with inhibitor and Aβ^1-42; rank guanidine, then guanosine, then urea
T2 construct: Aβ1-42, FITC-Aβ1-42 and FITC-scrambled-Aβ1-42 were purchased from American Peptide Company; purchased American Peptide Company (Sunnyvale, CA, USA); host or cells: synthetic peptide added to SH-SY5Y cell cultures
Protocol: (§2) Cell Culture and Cellular Uptake. The human neuroblastoma cell line, SH-SY-5Y, used in the present study was obtained from American Type Culture Collection (Manassas, VA). The cells were maintained in MEM:F12 (1:1) medium supplemented with 10% FBS, 100 units/mL penicillin and 100 units/mL streptomycin and 1% NEAA (non-essential amino acid). Cells were grown at 37° C. in a humidified atmosphere with 5% CO2/95% air. FITC-Aβ1-42, and FITC-scrambled-Aβ1-42, were added to SHSY5Y cultures for 24 h. For time-dependence experiments, 250 nM FITC-Aβ1-42 was added to SHSY5Y cells, plated in 4-well Lab-Tek chamber slides (Nunc) and images as well as spectral scans (Cytoviva) were acquired at varying times (0-5 days) after addition of the labeled-Aβ1-42. For dose-dependence experiments, FITC-Aβ1-42 was added at varying concentrations (0-1000 nM) and imaged 24 h thereafter. In some experiments, SH-SY-5Y cells were incubated with FITC-Aβ1-42 for 48 h in the presence and absence of inhibitors or promoters of β-amyloid peptide.
CytoViva hyperspectral imaging System After each treatment, slides were examined utilizing a CytoViva microscope and hyperspectral imaging system (CytoViva-Hyperspectral Imaging System (HSI), Auburn, AL; see the Cytoviva Hyperspectral Imaging System Manual) mounted on an Olympus BX-41 optical microscope. This system employs a darkfield-based illuminator that focuses a highly collimated light at oblique angles on the sample to obtain images with improved contrast and signal-to-noise ratio. […]
as §1
(§3) Acquisition of Spectral Scans from Hyperspectral Image The CytoViva Hyperspectral image analysis software powered by ENVI contains features to aid in the quantification and identification of materials by spectral data analysis. […]

APP/PS1 mice [1] = assay: Immunohistochemistry of brain tissue for Aβ load and plaques; format: in vivo, mouse
Protocol: (a) Isolation and analysis of brain tissue. Brains were removed from wild type and Alzheimer's mice and post fixed in Zamboni's fixative (4% paraformaldehyde and 15% picric acid in 0.25 M sodium phosphate, pH 7.5) for 48 h before being cryopreserved in a 30% (wt/vol) sucrose/0.1 sodium phosphate-buffered saline solution. Frozen sections (10 μm) in OCT were cut on a sliding microtome, brought to room temperature and were coverslipped with hardset Vectashield mounting medium with the nuclear stain DAPI (catalogue #H-1500; Vector Laboratories, Burlingame, CA). The whole-mount brain slides were scanned with Cytoviva microscope and spectral signatures were collected from wavelengths in the 400-1000 nm range as described.
(c) Immunohistochemistry of mouse brain and retina samples. For immunofluorescence studies, brain section slides and retina sample slides were pre-incubated for 1 hour in 5% normal goat serum (NGS) in 1×PBST (1×PBS containing 0.3% Triton X-100) at room temperature. A primary antibody against β-amyloid peptide ((Cell signaling, Cat. #2454) was employed then at a dilution of 1:200 in 1% NGS in 1×PBST. After an overnight incubation at 4° C., the slides were rinsed thrice for 10 min with 1×PBST and then incubated for 2 h in goat anti-rabbit IgG conjugated to Cy3 diluted to 1:1000 in 1% NGS in 1× PBST. The sections were rinsed in PBST thrice for 10 min and in PBS for 5 min. Samples were then dehydrated in ethanol, cleared with methyl salicylate, mounted in DEPEX (Electron Microscopy Science, Poole, UK) and staining of β-amyloid aggregates and plaques was visualized with Cytoviva microscope.
(§4) Hyperspectral Imaging to follow treatment success in Alzheimer's mice Alzheimer's and wild type mice were treated with a candidate drug, ψ-GSH, three times a week for 12 weeks starting at the age of three to four months. (see More et al., (2012) Restoration of Glyoxalase Enzyme Activity Precludes Cognitive Dysfunction in a Mouse Model of Alzheimer's Disease. ACS Chem. Neurosci., DOI: 10.1021/cn3001679) The study was divided in four groups (10 mice/group). 1. […]

APP/PS1 mice [2] = assay: Retinal HSI spectra to follow treatment in APP/PS1 mice; format: in vivo, mouse
Protocol: (b) Isolation and analysis of retina tissue. Eyes were enucleated from wild type and Alzheimer's mice at the desired age. For whole-mount retinas, eyes were fixed in […] of freshly prepared 4% PFA-PBS at room temperature for 45 minutes. This was followed by washing with ice-cold PBS solution (2 mL) at least five times. The anterior eye portion, cornea, was dissected out under surgical microscope. The iris was then removed followed by the sclera, lens and hyaloid vessels. The isolated retinas were then washed with ice-cold PBS and divided into four quadrants by making four radial incisions. The whole-mounts were prepared by transferring the dissected retinas onto a microscope slide and coverslipped with hardset Vectashield mounting medium with the nuclear stain DAPI. The whole-mount retina slides were scanned with Cytoviva microscope and spectral signatures were collected from wavelengths in the 400-1000 nm range as described before.
as §4

APP/PS1 mice [3] = assay: Morris Water maze memory test in APP/PS1 mice; format: in vivo, mouse
SH-SY5Y cells = assay: HSI spectral signature of cells exposed to Aβ1-42; format: cell-based, human
Protocol: as §2, with “In some experiments, SH-SY-5Y cells were incubated with FITC-Aβ1-42 for 48 h in the presence and absence of inhibitors or promoters of β-amyloid peptide.” left out
as §1, §3

T2 sequence (P05067 672-713): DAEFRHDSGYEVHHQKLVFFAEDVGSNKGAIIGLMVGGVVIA
T1 sequence (P05067 672-713): as above

number of intracellular amyloid aggregates compared to cells treated with Aβ^1-42 alone (Aβ^1-42 aggregates): 280%
Compound: [Zn+2] [Zn^2+]

number of intracellular amyloid aggregates compared to cells treated with Aβ^1-42 alone (Aβ^1-42 aggregates): 62%
Compound: N=C(N)N [guanidine, Guanidine]
attenuation of amyloid-induced HSI spectral change (Aβ^1-42 aggregation): greatest attenuation in HSI spectral change

Compound: Nc1nc2c(ncn2[C@@H]2O[C@H](CO)[C@@H](O)[C@H]2O)c(=O)[nH]1 [guanosine]
attenuation of amyloid-induced HSI spectral change (Aβ^1-42 aggregation): attenuation of amyloid-induced HSI spectral change

Compound: N[C@@H](CNC(=O)N[C@@H](CS)C(=O)NCC(=O)O)C(=O)O [ψ-GSH]
brain Aβ load (APP/PS1 mice [1]; i.p., versus untreated APP/PS1 mice): significantly lower Aβ load
Aβ plaques in brain relative to controls (APP/PS1 mice [1]; orally treated APP/PS1 mice): modest decrease in Aβ plaques
number and sizes of Aβ plaques in brain (APP/PS1 mice [1]; ψ-GSH treated group (i.p.)): drastically reduced
retinal HSI spectra (APP/PS1 mice [2]; APP/PS1 mice treated orally): did not exhibit any differences from those of transgenic mice
retinal HSI spectra (APP/PS1 mice [2]; APP/PS1 mice, ψ-GSH i.p. 12 weeks, after 2 months of treatment onward): tended toward those from normal mice
spatial memory development and escape latencies relative to the saline-treated group (APP/PS1 mice [3]; APP/PS1 mice treated orally): did not reach statistical significance
escape latency (APP/PS1 mice [3]; day 3, ψ-GSH treated mice (WT saline 17.29±2.13 s)): 17.91 ± 4.65 s
escape latency (APP/PS1 mice [3]; day 4, ψ-GSH treated mice (WT saline 12.42±2.18 s)): 14.64 ± 2.61 s
learned behavior during the first week of testing (APP/PS1 mice [3]; i.p.): significant learned behavior inculcation
time in the target quadrant, probe trial (APP/PS1 mice [3]; i.p., untreated APP-PS1 16.39±3.39%, non-transgenic vehicle 36.67±5.30%): 38.43±3.73%
time in the target quadrant, probe trial (APP/PS1 mice [3]; orally treated APP/PS1 mice): 21.76±5.36%

Compound: Aβ^1-42: β-amyloid peptide purchased from American Peptide Company; FITC-labelled form used for cell uptake
time at which transmitted light reaches its nadir (SH-SY5Y cells; 250 nM peptide, HSI spectra over time): 48 h
HSI spectral change in the 400-1000 nm wavelength region (SH-SY5Y cells; SH-SY5Y cells, 0-1000 nM peptide): transmitted light shifts to lower values

Compound: NC(N)=O [urea]
attenuation of amyloid-induced HSI spectral change (Aβ^1-42 aggregation): attenuation of amyloid-induced HSI spectral change

From patent US12329457B2, “Hyperspectral imaging for early detection of Alzheimer's disease” (REGENTS OF THE UNIVERSITY OF MINNESOTA, priority 2011, dated 2025)
